Patent US20100041760A1, “MONOARYL AMINOTETRALINES” (priority 2008, published 2010)

Legend:
human CRTH2 = molecular target: T1, human CRTH2 (Homo sapiens, UniProt Q9Y5Y4); experiment: Human CRTH2 Receptor Binding Assay (whole cell, [3H]ramatroban competition); set-up: expressed in transfected cells; host or cells: CHO-K1 (co-transfected with G-alpha16); conditions: CHO-K1 cells expressing human CRTH2 and G-alpha16; 20 nM [3H]ramatroban; 1 hour, room temperature
T1 sequence (Q9Y5Y4 1-395): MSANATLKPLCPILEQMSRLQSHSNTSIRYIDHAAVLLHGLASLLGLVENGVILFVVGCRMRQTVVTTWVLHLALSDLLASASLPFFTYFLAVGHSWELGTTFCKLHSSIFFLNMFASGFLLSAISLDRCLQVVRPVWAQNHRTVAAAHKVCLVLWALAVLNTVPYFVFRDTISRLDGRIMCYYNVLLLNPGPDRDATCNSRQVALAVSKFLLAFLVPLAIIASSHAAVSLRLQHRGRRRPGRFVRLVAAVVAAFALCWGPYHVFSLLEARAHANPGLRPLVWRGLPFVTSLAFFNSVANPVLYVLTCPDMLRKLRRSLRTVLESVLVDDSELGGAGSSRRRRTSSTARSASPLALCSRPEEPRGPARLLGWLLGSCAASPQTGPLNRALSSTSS
Excerpt: A whole cell receptor binding assay using [^3H]ramatroban as the competing radioactive ligand was employed to evaluate the compound binding activity to human CRTH2. The radioactive ligand [^3H]ramatroban was synthesized according to Sugimoto et. al. (Eur. J. Pharmacol. 524, 30-37, 2005) to a specific activity of 42 Ci/mmol.
A cell line stably expressing human CRTH2 was established by transfecting CHO-K1 cells with two mammalian expression vectors that harbored human CRTH2 and G-alpha16 cDNAs, respectively, using FuGene® 6 transfection reagent (from Roche). Stable clones expressing CRTH2 were selected by staining each clone with BM16 (BD Pharmingen™ from BD Biosciences, a division of Becton, Dickinson and Company), which is a rat monoclonal antibody to human CRTH2. The cells were maintained as monolayer cultures in Ham's F-12 medium containing 10% fetal bovine serum, 100 units/mL penicillin, 100 μg/mL streptomycin, 2 mM glutamine, 0.5 mg/mL G418 (geneticin) for CRTH2, and 0.2 mg/mL hygromycin-B (for G-alpha 16). For whole cell receptor binding assay, the monolayer cells were rinsed once with PBS (phosphate buffered saline), dissociated using ethylenediaminetetraacetate (Versene™ EDTA from Lonza Inc.), and suspended in PBS containing 10 mM MgCl2 and 0.06% BSA (bovine serum albumin) at 1.5×10^6 cells/mL.
The binding reactions (0.2 mL) were performed in 96-well plates at room temperature in PBS containing 1.5×10^5 cells, 10 mM MgCl2, 0.06% BSA, 20 nM [^3H]ramatroban, and test compound at various concentrations. After 1 hour of binding reactions, the cells were harvested on GF™/B filter microplates (microtiter plates with embedded glass fiber from PerkinElmer, Inc.) and washed 5 times with PBS using a Filtermate™ Harvester (a cell harvester that harvests and washes cells from microplates from PerkinElmer, Inc.). The radioactivities bound to the cells were determined using a microplate scintillation counter (TopCount® NXT, from PerkinElmer, Inc.) after adding 50 μL of Microscint™ 20 scintillation fluid (from PerkinElmer, Inc.) to each well of the filter plates. The radioactivity from non-specific binding was determined by replacing compound with 10 μM of 15(R)-15-methyl PGD2 (from Cayman Chemical Company) in the reaction mixtures. The radioactivity bound to the cells in the absence of compound (total binding) was determined by replacing compound with 0.25% of DMSO (dimethyl sulfoxide) in the reaction mixture. Specific binding data were obtained by subtracting the radioactivity of non-specific binding from each binding data.
(§1) The IC50 value is defined as the concentration of the tested compound that is required for 50% inhibition of total specific binding. In order to calculate the IC50 value, the percent inhibition data were determined for 7 concentrations for each compound. The percent inhibition for a compound at each concentration was calculated according to the following formula, [1−(specific binding in the presence of compound)/(total specific binding)]×100. The IC50 value was then obtained by fitting the percent inhibition data to a sigmoidal dose-response (4 parameter logistic) model in the XLfit® software Excel add-in program [from ID Business Solutions Ltd., model 205, where F(x)=(A+(B−A)/(1+((C/x)̂D)))].

[1] = molecular target: T2, thromboxane A2 receptor (TP) (Homo sapiens, UniProt P21731); experiment: Human Thromboxane A2 Receptor Binding Assay; conditions: human platelets; 10 nM [3H]SQ29548; 1 hour, room temperature
T2 construct: using human platelets as the source of the receptor; from tissue; host or cells: human platelets (whole platelets, 5x10^7 per well)
T2 sequence (P21731 1-343): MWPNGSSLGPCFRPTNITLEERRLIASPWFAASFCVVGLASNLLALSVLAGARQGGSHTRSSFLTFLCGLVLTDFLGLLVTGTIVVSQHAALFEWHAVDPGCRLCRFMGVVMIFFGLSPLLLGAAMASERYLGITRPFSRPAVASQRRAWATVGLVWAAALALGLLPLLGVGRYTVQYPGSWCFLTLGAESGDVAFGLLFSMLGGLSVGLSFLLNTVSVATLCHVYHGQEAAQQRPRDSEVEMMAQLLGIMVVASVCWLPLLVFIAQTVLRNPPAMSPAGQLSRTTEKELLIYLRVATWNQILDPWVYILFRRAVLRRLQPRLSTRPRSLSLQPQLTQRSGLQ
Excerpt: The thromboxane A2 receptor (TP) plays a key role in hemostasis as its abnormality leads to bleeding disorders. To avoid the potential liability of bleeding disorders, the binding activity of certain compounds of the present invention against TP was monitored by a receptor binding assay using human platelets as the source of the receptor and [^3H]SQ29548 (generically named (5Z)-[5,6-^3H]-7-[(1S,2R,3R,4R)-3-[[2-[(phenylamino)carbonyl]hydrazinyl]methyl]-7-oxabicyclo[2.2.1]hept-2-yl]-5-heptenoic acid, from PerkinElmer Inc.) as the competing radioactive ligand.
The TP binding reactions (0.2 mL) were performed in 96-well plates at room temperature in PBS containing 5×10^7 platelets, 10 mM MgCl2, 0.06% BSA, 10 nM [^3H]SQ29548, and the test compound at various concentrations. After 1 hour of binding reactions, the platelets were harvested on GF/B filter plates (as previously described from PerkinElmer Inc.) and washed 5 times with PBS using a Filtermate™ Harvester (as previously described from PerkinElmer Inc.). The radioactivities bound to the platelets were determined using a microplate scintillation counter (TopCount® NXT, from PerkinElmer Inc.) after adding 50 μL of Microscint™ 20 scintillation fluid (from PerkinElmer Inc.) to each well of the filter plates. The radioactivity from non-specific binding was determined by replacing the compound with 10 μM of ramatroban (BAY-u3405, from Cayman Chemical Company) in the reaction mixtures. The radioactivity bound to the platelets in the absence of compound (total binding) was determined by replacing the compound with 0.25% of DMSO in the reaction mixture. Specific binding data were obtained by subtracting the radioactivity of non-specific binding from each binding data.
as §1

CCOc1cc(C(F)(F)F)cc(S(=O)(=O)N(C)[C@@H]2CCCc3c(OCC(=O)O)cccc32)c1 [Example 9-2, {(R)-5-[(3-ethoxy-5-trifluoromethyl-benzenesulfonyl)-methyl-amino]-5,6,7,8-tetrahydro-naphthalen-1-yloxy}-acetic acid]
IC50 (human CRTH2): 399 nM
IC50 [1]: > 10000 nM

CN([C@@H]1CCCc2c(OCC(=O)O)cccc21)S(=O)(=O)c1cc(F)cc(C(F)(F)F)c1 [Example 1-1, {(R)-5-[(3-fluoro-5-trifluoromethyl-benzenesulfonyl)-methyl-amino]-5,6,7,8-tetrahydro-naphthalen-1-yloxy}-acetic acid]
IC50 (human CRTH2): 381 nM
IC50 [1]: > 10000 nM

O=C(O)COc1cccc2c1CCC[C@H]2NS(=O)(=O)c1cc(Cl)cc(Cl)c1 [Example 10-1, [(R)-5-(3,5-dichloro-benzenesulfonylamino)-5,6,7,8-tetrahydro-naphthalen-1-yloxy]-acetic acid]
IC50 (human CRTH2): 340 nM
IC50 [1]: 126 nM

O=C(O)COc1cccc2c1CCC[C@H]2NS(=O)(=O)c1cc(F)cc(C(F)(F)F)c1 [Example 10-12, [(R)-5-(3-fluoro-5-trifluoromethyl-benzenesulfonylamino)-5,6,7,8-tetrahydro-naphthalen-1-yloxy]-acetic acid]
IC50 (human CRTH2): 20 nM
IC50 [1]: 342 nM

O=C(O)COc1cccc2c1CCC[C@H]2NS(=O)(=O)c1cc(F)cc(F)c1 [Example 10-5, [(R)-5-(3,5-difluoro-benzenesulfonylamino)-5,6,7,8-tetrahydro-naphthalen-1-yloxy]-acetic acid]
IC50 (human CRTH2): 13 nM
IC50 [1]: 2420 nM

CN([C@@H]1CCCc2c(OCC(=O)O)cccc21)S(=O)(=O)c1cc(OC2CCCC2)cc(C(F)(F)F)c1 [Example 9-3, {(R)-5-[(3-cyclopentyloxy-5-trifluoromethyl-benzenesulfonyl)-methyl-amino]-5,6,7,8-tetrahydro-naphthalen-1-yloxy}-acetic acid]
IC50 (human CRTH2): 423 nM
IC50 [1]: 8520 nM

CCN(CC)c1cc(C(F)(F)F)cc(S(=O)(=O)N(C)[C@@H]2CCCc3c(OCC(=O)O)cccc32)c1 [Example 4-2, {(R)-5-[(3-diethylamino-5-trifluoromethyl-benzenesulfonyl)-methyl-amino]-5,6,7,8-tetrahydro-naphthalen-1-yloxy}-acetic acid]
IC50 (human CRTH2): 773 nM
IC50 [1]: > 10000 nM
